{"source": "patent EP4631937A1", "about": "“CRYSTALLINE FORM OR AMORPHOUS FORM OF OXOISOINDOLE-5-FORMAMIDE COMPOUND OR SALT AND SOLVATE THEREOF” (Hangzhou Glubio Pharmaceutical Co., Ltd., priority 2022, dated 2024)", "assay": "Pharmacokinetic evaluation in mice by gavage", "assay_type": "in vivo", "set-up": "AUClast /D: unit not given here", "details": "CD1 male mice, oral, 30 mg/kg", "method": "CD1 male mice were selected and the test compound was administered orally. The drug concentration in plasma at different time points was quantitatively determined by LC/MS/MS to evaluate the pharmacokinetic characteristics of the test drug in mice.\nExperimental materials: CD1 Mouse (male, 20-30 g, 6-8 weeks old, Zhejiang Weitong Lihua).\nBlood was collected from the dorsal plantar vein at 0.25 h, 0.5 h, 1 h, 2 h, 4 h, 6 h, 8 h and 24 h after administration, placed in an anticoagulant tube containing EDTA-K2 and mixed, and centrifuged at 4°C and 4000 g for 5 minutes. The drug concentration in blood was determined by LC-MS/MS, and the relevant pharmacokinetic parameters were calculated by the non-compartmental linear/log trapezoidal method using Phoenix WinNonlin 6.3 pharmacokinetic software.", "key": {"[1]": {"details": "mouse, plasma, 25 mM citrate buffer (pH 3) containing 5% Tween 80"}}}
{"smiles": "O=C1CC[C@H](N2Cc3cc(C(=O)N[C@H](c4ccc(Cl)cn4)C4CCC4)ccc3C2=O)C(=O)N1", "note": "[Amorphous]", "values": [{"measurement": "AUClast /D", "setting": "25 mM citrate buffer (pH 3) containing 5% Tween 80, dose-normalised", "result": "1178 ± 116"}, {"measurement": "AUC(0-inf)", "setting": "[1]", "result": "35900 ± 3760", "unit": "ng·h/mL"}, {"measurement": "AUC(0-t)", "setting": "[1]", "result": "35300 ± 3480", "unit": "ng·h/mL"}, {"measurement": "Cmax", "setting": "[1]", "result": "17800 ± 3130", "unit": "ng/mL"}, {"measurement": "Tmax", "setting": "[1]", "result": 0.42, "unit": "h"}, {"measurement": "half-life", "setting": "[1]", "result": 3.1, "unit": "h"}]}
